Results from article PMC6154737, “Leishmanicidal Activity and Structure-Activity Relationships of Essential Oil Constituents” (Molecules : A Journal of Synthetic Chemistry and Natural …, 2017).
In brackets after ≈: the same amount, converted by molar mass. Read-outs that look alike come from different tables or passages of the source.

Key:
L. chagasi promastigotes = conditions: cited from earlier work
[1] = Cytotoxicity on L929 fibroblasts (MTT assay); format: cell-based; conditions: mouse, MTT, mean ± SD; for viability at 24 h, 50 µg mL^−1: 50 µg mL^−1, 24 h; for viability at 24 h, 100 µg mL^−1: 100 µg mL^−1, 24 h
Protocol: (§1) Culture of the mouse fibroblast cell line (L929, ATCC CCL-1) were maintained in Dulbecco′s Modified Eagle Medium (DMEM, Sigma-Aldrich, St. Louis, MO, USA) supplemented with 10% heat-inactivated FBS and 1% streptomycin/penicillin (5000 units + 5 mg mL^−1, Sigma-Aldrich, St. Louis, MO, USA), and kept in a humid atmosphere at 37 °C and 5% CO2.
(§2) Fibroblasts were distributed in 96-well plates (2 × 10^4 cells/well) and incubated for 24 h in a 5% CO2 atmosphere at 37 °C. After this period, the medium was removed and the adhered cells were treated with the compounds at concentrations of 50.0 and 100.0 μg mL^−1 for 24 h under the same incubation conditions. Untreated cells were used as controls and considered with 100% cell viability. After the treatment period, cell viability was determined by MTT assay as described in ISO 10993-5 [50], with modifications. For this, the cell monolayer was washed twice with PBS (pH 7.4), and then 200 μl MTT (0.5 mg mL^−1 in PBS, Sigma-Aldrich, St. Louis, MO, USA) was added to each well. The plates were again incubated under the same conditions as listed above, for a period of 3 h. After the incubation time, the MTT was aspirated and the formazan crystals were solubilized in 200 μL of DMSO. After 10 min, the optical density (OD) was measured on a microplate reader at the wavelength of 570 nm. The results were expressed as percentage of viability according to the following equation:(3) Viability=Absorbance (treated cell)/Absorbance (control cell) × 100
(§3) Each experiment was conducted in quadruplicate and repeated at least three times. Data were expressed as mean ± standard deviation (±SD).

[2] = tested on: Leishmania amazonensis promastigotes; experiment: In vitro leishmanicidal activity (resazurin viability) against promastigotes; format: cell-based; conditions: for Activity against L. amazonensis promastigotes in words: concentrations up to 1000.0 μg mL^−1
Protocol: Culture of L. amazonensis (LTCP 9667 obtained by Giudice et al.) promastigotes were maintained at 24 °C in Schneider′s Drosophila medium (Sigma-Aldrich, St. Louis, MO, USA; pH 6.7) supplemented with 10% (v/v) inactivated fetal bovine serum (FBS, Gibco by Thermo Fisher Scientific, Carlsbad, CA, USA), ampicillin 500 mg m^−1, 1% and gentamicin 40 mg mL^−1, 0.1% (Sigma-Aldrich, St. Louis, MO, USA).
Promastigotes of L. amazonensis in log-phase growth were distributed in a 96-well plate (5 × 10^5 cells/well) and treated with the evaluated compounds solubilized in dimethyl sulfoxide (DMSO, Sigma-Aldrich, St. Louis, MO, USA) and diluted in Schneider′s medium in different concentrations (between 0.0 and 1000.0 μg mL^−1) and incubated for 24 h at 24 °C in a biochemical oxygen demand (BOD) incubator. Promastigotes incubated in the absence of test compounds were used as a negative control. Promastigotes treated with Amphotericin B (Sigma-Aldrich, St. Louis, MO, USA) were used as a positive control. The cellular viability of the parasites was evaluated using the colorimetric method of resazurin, adapted from Kulshrestha et al.. Briefly, after the treatment time, 50 μL of resazurin (2 mM mL^−1 in phosphate-buffered saline (PBS)) (Sigma-Aldrich, St. Louis, MO, USA) was added per well and the plates were again incubated for 6 h at 24 °C, then read in a spectrophotometer (Synerg H1, Biotek, Winooski, VT, USA) at 570 and 595 nm. Absorbance was used to calculate cell viability based on the following equation:(1) Viability (%)=Abs.570 nm−(Abs.595 nm × RO) test/Abs.570 nm –(Abs.595 nm × RO) control × 100 wherein:(2) RO= OD medium with resazurin in 570 nm−OD medium without resasurin in 570 nm/OD medium with resazurin in 595 nm−OD medium without resazurin in 595 nm
The IC50 values were obtained by a non-linear regression analysis from the viability values using the GraphPad Prism 5.0 program. All experiments were performed in triplicate from three independent experiments and the data were expressed as mean ± standard deviation (±SD).

[3] = tested on: L. amazonensis promastigotes; conditions: cited from earlier work
[4] = tested on: promastigotes of L. infantum chagasi; design: method as in PMID 27591136; conditions: up to the dose of 750 μg mL^−1; cited from earlier work
L929 fibroblasts = experiment: Cytotoxicity on L929 fibroblasts (MTT assay); format: cell-based; conditions: intensity scale of Rodrigues et al.; for Cytotoxicity class (symbol) at 50 µg mL^−1: 50 µg mL^−1, 24 h; for Cytotoxicity class (symbol) at 50 µg mL^−1 / Cytotoxicity class (symbol) at 100 µg mL^−1: MTT; for Cytotoxicity class (symbol) at 100 µg mL^−1: 100 µg mL^−1, 24 h
Protocol: as §1, §2, §3

[5] = tested on: L. donovani promastigotes; design: method as in PMID 18095647; conditions: cited from earlier work
[6] = tested on: promastigotes of L. infantum; design: method as in PMID 24365244; conditions: doses up to 400 μg mL^−1; cited from earlier work
[7] = tested on: promastigotes of L. tropica; design: method as in PMID 24365244; conditions: doses up to 400 μg mL^−1; cited from earlier work
[8] = tested on: promastigotes of L. major; design: method as in PMID 24365244; conditions: doses up to 400 μg mL^−1; cited from earlier work
L. panamensis = tested on: L. panamensis; design: method as in earlier work; conditions: cited from earlier work
[9] = L. chagasi promastigotes, ref 28
[10] = Leishmania amazonensis, 24 h, promastigotes, 24 h incubation, resazurin method, mean ± SD of three independent experiments in triplicate, read-out: IC50
[11] = Leishmania amazonensis, 24 h, promastigotes, 24 h incubation, resazurin method, mean ± SD of three independent experiments in triplicate, read-out: IC50 (µg mL^−1)
[12] = Leishmania amazonensis, 24 h, read-out: IC50 (µg mL^−1)

Compound	IC50 (L. chagasi promastigotes; [9]) [µg/mL]	IC50 [2, 10] [µM]	IC50 [2, 11] [µg/mL]	viability at 24 h, 50 µg mL^−1 ([1]; L929 fibroblast cells) [%]	viability at 24 h, 100 µg mL^−1 ([1]; L929 fibroblast cells) [%]	Cytotoxicity class (symbol) at 50 µg mL^−1 (L929 fibroblasts)	Cytotoxicity classification in words at 50.0 μg mL^−1 (L929 fibroblasts)	Cytotoxicity class (symbol) at 100 µg mL^−1 (L929 fibroblasts)	also measured
C=C(C)[C@@H]1CC=C(C)C(=O)C1 [(−)-Carvone, (5R)-2-methyl-5-prop-1-en-2-ylcyclohex-2-en-1-one]	> 300.0	1300 ± 113	195 ± 16.9	–	–	–	–	–	viability at 24 h, 50 µg mL^−1 [1]: 65.1 ± 4.7%; viability at 24 h, 100 µg mL^−1 [1]: 58.2 ± 4.2%
C=C[C@](C)(O)CCC=C(C)C [(−)-Linalool, (3R)-3,7-dimethylocta-1,6-dien-3-ol]	–	1790 ± 156	276 ± 24	65.7 ± 8.2	66.7 ± 7.8	–	–	–	IC50 ([3]; L. amazonensis promastigotes): 0.0043 µg/mL (≈ 0.0279 µM); Changes in the viability of promastigotes in words [4]: did not identify changes in the viability
CC(C)[C@@H]1CC[C@@H](C)C[C@H]1O [(−)-Menthol, (1R,2S,5R)-5-methyl-2-propan-2-ylcyclohexan-1-ol]	–	1270 ± 76.8	198	83.8 ± 8	81.2 ± 2.4	** (Non-cytotoxic (viability >80%))	non-cytotoxic	** (Non-cytotoxic (viability >80%))	IC50 ([2]; promastigotes, 24 h incubation, resazurin method, mean ± SD of three independent experiments in triplicate, listed as (–)-Menthol (7)): 198.9 ± 12.0 µg/mL
C[C@@H]1[C@H](O)[C@@H](C)/C=C/C=C/C=C/C=C/C=C/C=C/C=C/[C@H](O[C@@H]2O[C@H](C)[C@@H](O)[C@H](N)[C@@H]2O)C[C@@H]2O[C@](O)(C[C@@H](O)C[C@@H](O)[C@H](O)CC[C@@H](O)C[C@@H](O)CC(=O)O[C@H]1C)C[C@H](O)[C@H]2C(=O)O [Amphotericin B, reference compound]	–	0.054 ± 0.01	0.05 ± 0.01	–	–	–	–	–	–
Cc1ccc(C(C)C)cc1O [Carvacrol, 2-methyl-5-propan-2-ylphenol]	28.0 (≈ 186 µM)	–	–	51.3 ± 3	46.1 ± 2.9	–	–	* (Moderate cytotoxicity (viability between >30% and <50%))	IC50 (L. chagasi promastigotes; L. chagasi promastigotes, ref 27): 2.3 µg/mL (≈ 15.3 µM); IC50 ([3]; L. amazonensis promastigotes, 72 h incubation, p-nitrophenol phosphate): 15.3 µg/mL (≈ 102 µM); Cytotoxicity classification in words at 100.0 μg mL^−1 (L929 fibroblasts): moderate cytotoxicity; IC50 ([2]; Leishmania amazonensis, 24 h): 169 ± 16 µM; IC50 [2, 12]: 25.4 ± 2.4 µg/mL
CC1=CCC2C(C1)C2(C)C (stereo not shown) [Compound 3-Carene, 4,7,7-trimethylbicyclo[4.1.0]hept-3-ene]	–	532 ± 136	72.5 ± 18.5	84.1 ± 6.4	48.7 ± 6.7	** (Non-cytotoxic (viability >80%))	non-cytotoxic	* (Moderate cytotoxicity (viability between >30% and <50%))	IC50 [5]: 27.0 µg/mL (≈ 198 µM); Cytotoxicity classification in words at 100.0 μg mL^−1 (L929 fibroblasts): moderate cytotoxicity
C=CCc1ccc(O)c(OC)c1 [Eugenol, 2-methoxy-4-prop-2-enylphenol]	–	–	–	78.1 ± 7	63.1 ± 1.7	–	–	–	IC50 (L. chagasi promastigotes; promastigote forms of L. chagasi): 56.1 µg/mL (≈ 342 µM); IC50 ([2]; Leishmania amazonensis, 24 h): 505 ± 37.8 µM; IC50 [2, 12]: 82.9 ± 6.2 µg/mL
CC1(C)[C@@H]2CC[C@@]1(C)[C@H](O)C2 [Isoborneol, (1R,3R,4R)-4,7,7-trimethylbicyclo[2.2.1]heptan-3-ol]	–	1230 ± 63.5	190 ± 9.8	73.3 ± 9.4	72.9 ± 7.5	–	–	–	Leishmanicidal activity in words [6]: No leishmanicidal activity was found; Leishmanicidal activity in words [7]: No leishmanicidal activity was found; Leishmanicidal activity in words [8]: No leishmanicidal activity was found
Cc1ccc(C(C)C)c(O)c1 [Thymol, 5-methyl-2-propan-2-ylphenol]	–	178 ± 24.6	26.8 ± 3.7	64.5 ± 4	58.5 ± 6.7	–	–	–	IC50 (L. panamensis): 194.3 µg/mL (≈ 1290 µM); IC50 ([3]; L. amazonensis): 22.6 µg/mL (≈ 150 µM)
Cc1ccc(C(C)C)cc1 [p-Cymene, 1-methyl-4-propan-2-ylbenzene]	149.1 (≈ 1110 µM)	> 7450	> 1000	91.2 ± 6.6	87.1 ± 6.7	** (Non-cytotoxic (viability >80%))	non-cytotoxic	** (Non-cytotoxic (viability >80%))	Activity against L. amazonensis promastigotes in words [2]: no effect on the viability; Activity against L. amazonensis promastigotes in words ([2]; listed as p-cymene): did not exhibit any activity
